In brackets after ≈: the same amount, converted by molar mass.
Key:
Assay in all cases: In vitro antibacterial evaluation: minimum inhibitory concentration (MIC), broth dilution method
Type in all cases: cell-based
Streptococcus sp. = settings: broth dilution, 5×10^5 CFU/mL, 18 hours at 35° C.
Method in brief: (§1)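 First, organisms are seeded at 5×10^5 CFU/mL into Muller-Hinton II […]. Next, antibiotic is applied across 64-0.06 μg/mL by broth dilution (NCCLS M7-A2). Finally, the lowest inhibitory concentration is recorded as MIC.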

Staphylococcus sp. = settings: for MIC Staphylococcus aureus (ATCC 29213): strain ATCC 29213; for MIC Staphylococcus aureus (GC 1131): strain GC 1131; for MIC Staphylococcus aureus (GC 3051): strain GC 3051; for MIC Staphylococcus aureus (GC 3053): strain GC 3053; for MIC Staphylococcus aureus (GC 4541): strain GC 4541; for MIC Staphylococcus aureus (GC 4542): strain GC 4542; for MIC Staphylococcus aureus (GC 4544): strain GC 4544; for MIC Staphylococcus aureus (GC 4545): strain GC 4545
Method in brief: as §1

Enterococcus sp. = settings: broth dilution, 5×10^5 CFU/mL, 18 hours at 35° C.
Method in brief: as §1

Escherichia coli = settings: 5×10^5 CFU/mL, 18 hours at 35° C.
Method in brief: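 Broth dilution per NCCLS M7-A2 in Muller-Hinton II […], inoculum 5×10^5 CFU/mL, antibiotic tested over 64-0.06 μg/mL. MIC is taken as the lowest concentration that inhibits growth. Panel includes recent clinical isolates resistant to methicillin, penicillin and/or vancomycin.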

[1] = broth dilution, 5×10^5 CFU/mL, 18 hours at 35° C.
[2] = broth dilution, 18 hours at 35° C.

## CC(C)=CCCC(C)C1OCC2OC(OC3C(CO)OC(Oc4ccc(CC5NC(=O)C(C(C)c6ccccc6)NC(=O)CNC(=O)C(CO)NC(=O)C(C(O)C6CNC(=N)N6C6OC(CO)C(O)C(O)C6O)NC(=O)C(C(O)C6CNC(=N)N6)NC5=O)cc4)C(O)C3O)C(O)C(O)C2O1 (stereo not drawn) [Example 125, Cyclo[glycyl-β-methylphenylalanyl-O-[4-O-[4,6-O-[2,6-dimethylhept-5-en-1-yidene)hexopyranosyl]hexopyranosyl]tyrosyl-3-(2-iminoimidazolidin-4-yl)seryl-3-(3-hexopyranosyl-2-iminoimidazolidin-4-yl)serylseryl]]
Streptococcus sp.
  MIC Streptococcus agalactiae (GC 4564): 1 µg/mL (≈ 0.705 µM)
  MIC Streptococcus pneumoniae (GC 1894): 0.12 µg/mL (≈ 0.0847 µM)
  MIC Streptococcus pneumoniae (GC 4565): 0.25 µg/mL (≈ 0.176 µM)
  MIC Streptococcus pneumonine (ATCC 6301): 0.25 µg/mL (≈ 0.176 µM)
  MIC Streptococcus pyogenes (GC 4563): 0.5 µg/mL (≈ 0.353 µM)
Staphylococcus sp.; [1]
  MIC Coagulase Negative Staphylococcus (GC 4547): 32 µg/mL (≈ 22.6 µM)
  MIC Coagulase Negative Staphylococcus (GC 4548): 32 µg/mL (≈ 22.6 µM)
  MIC Coagulase Negative Staphylococcus (GC 4549): 32 µg/mL (≈ 22.6 µM)
  MIC Coagulase Negative Staphylococcus (GC 4551): 32 µg/mL (≈ 22.6 µM)
  MIC Coagulase Negative Staphylococcus (GC 6257): 32 µg/mL (≈ 22.6 µM)
  MIC Staphylococcus aureus-SMITH (GC 4543): 32 µg/mL (≈ 22.6 µM)
  MIC Staphylococcus haemolyticus (GC 4546): 32 µg/mL (≈ 22.6 µM)
Staphylococcus sp.
  MIC Staphylococcus aureus (ATCC 29213): 32 µg/mL (≈ 22.6 µM)
  MIC Staphylococcus aureus (GC 1131): 32 µg/mL (≈ 22.6 µM)
  MIC Staphylococcus aureus (GC 3051): 32 µg/mL (≈ 22.6 µM)
  MIC Staphylococcus aureus (GC 3053): 32 µg/mL (≈ 22.6 µM)
  MIC Staphylococcus aureus (GC 4541): 8 µg/mL (≈ 5.64 µM)
  MIC Staphylococcus aureus (GC 4542): 32 µg/mL (≈ 22.6 µM)
  MIC Staphylococcus aureus (GC 4544): 32 µg/mL (≈ 22.6 µM)
  MIC Staphylococcus aureus (GC 4545): 32 µg/mL (≈ 22.6 µM)
Staphylococcus sp.; [2]
  MIC Staphylococcus aureus (ATCC 29213): 32 µg/mL (≈ 22.6 µM)
  MIC Staphylococcus aureus (GC 1131): 32 µg/mL (≈ 22.6 µM)
  MIC Staphylococcus aureus (GC 3051): 32 µg/mL (≈ 22.6 µM)
  MIC Staphylococcus aureus (GC 3053): 32 µg/mL (≈ 22.6 µM)
  MIC Staphylococcus aureus (GC 4541): 8 µg/mL (≈ 5.64 µM)
  MIC Staphylococcus aureus (GC 4542): 32 µg/mL (≈ 22.6 µM)
  MIC Staphylococcus aureus (GC 4544): 32 µg/mL (≈ 22.6 µM)
  MIC Staphylococcus aureus (GC 4545): 32 µg/mL (≈ 22.6 µM)
Staphylococcus sp.; strain GC 4543, broth dilution, 18 hours at 35° C.
  MIC Staphylococcus aureus-SMITH (GC 4543): 32 µg/mL (≈ 22.6 µM)
Staphylococcus sp.; strain GC 4546, broth dilution, 18 hours at 35° C.
  MIC Staphylococcus haemolyticus (GC 4546): 32 µg/mL (≈ 22.6 µM)
Staphylococcus sp.; strain GC 4547, broth dilution, 18 hours at 35° C.
  MIC Coagulase Negative Staphylococcus (GC 4547): 32 µg/mL (≈ 22.6 µM)
Staphylococcus sp.; strain GC 4548, broth dilution, 18 hours at 35° C.
  MIC Coagulase Negative Staphylococcus (GC 4548): 32 µg/mL (≈ 22.6 µM)
Staphylococcus sp.; strain GC 4549, broth dilution, 18 hours at 35° C.
  MIC Coagulase Negative Staphylococcus (GC 4549): 32 µg/mL (≈ 22.6 µM)
Staphylococcus sp.; strain GC 4551, broth dilution, 18 hours at 35° C.
  MIC Coagulase Negative Staphylococcus (GC 4551): 32 µg/mL (≈ 22.6 µM)
Staphylococcus sp.; strain GC 6257, broth dilution, 18 hours at 35° C.
  MIC Coagulase Negative Staphylococcus (GC 6257): 32 µg/mL (≈ 22.6 µM)
Enterococcus sp.
  MIC Enterococccus avium (GC 4558): 32 µg/mL (≈ 22.6 µM)
  MIC Enterococccus faecalis (ATCC 29212): 32 µg/mL (≈ 22.6 µM)
  MIC Enterococccus faecalis (GC 2691): 32 µg/mL (≈ 22.6 µM)
  MIC Enterococccus faecalis (GC 3059): 32 µg/mL (≈ 22.6 µM)
  MIC Enterococccus faecalis (GC 4552): 32 µg/mL (≈ 22.6 µM)
  MIC Enterococccus faecalis (GC 4553): 32 µg/mL (≈ 22.6 µM)
  MIC Enterococccus faecalis (GC 4554): 32 µg/mL (≈ 22.6 µM)
  MIC Enterococccus faecalis (GC 6189): 32 µg/mL (≈ 22.6 µM)
  MIC Enterococccus faecium (GC 2243): 32 µg/mL (≈ 22.6 µM)
  MIC Enterococccus faecium (GC 4556): 32 µg/mL (≈ 22.6 µM)
  MIC Enterococccus faecium (GC 4557): 16 µg/mL (≈ 11.3 µM)
  MIC Enterococcus faecalis (GC 2242): 32 µg/mL (≈ 22.6 µM)
Escherichia coli
  MIC Escherichia coli (ATCC 25922): >64 µg/mL
  MIC Escherichia coli (GC 4559): >64 µg/mL
  MIC Escherichia coli (GC 4560): 32 µg/mL (≈ 22.6 µM)
